{"source": "patent US10196382B2", "about": "“bis-Pyridazine compounds and their use in treating cancer” (AstraZeneca AB, priority 2015, dated 2019)", "key": {"NCI-H1703 cells": {"system": "NCI-H1703 cells", "test": "GLS Cell Proliferation Assay (NCI-H1703)", "assay_type": "cell-based", "conditions": "Homo sapiens, 120 h; NCI-H1703 cells, 5 days incubation, Sytox Green; read-out: Assay c) GLS Cell Proliferation Assay", "excerpt": "(§1) The following assays were used to measure the effects of the compounds of the present invention: a) GLS Enzyme Potency Assay; b) GLS Cell Potency Assay; c) GLS Cell Proliferation Assay. During the description of the assays, generally: • i. The following abbreviations have been used: CO2=Carbon dioxide; DMEM=Dulbecco's Modified Eagle Medium; DMSO=Dimethyl sulphoxide; EDTA=Ethylenediaminetetraacetic acid; EGTA=Ethylene glycol tetraacetic acid; FCS=Foetal calf serum; h=Hour(s); NBS=Non-binding surface; SDS=Sodium dodecyl sulphate; TRIS=Tris(Hydroxymethyl)aminomethane. • ii. IC50 values were calculated using a smart fitting model in Genedata. […] Assay a): GLS Enzyme Potency Assay\nThe ability of compounds to inhibit cell growth was measured using a 384 well plate NCI-H1703 cell proliferation assay. […] DMSO concentration was maintained at 0.3% by back filling with DMSO solution. Plates were incubated for 5 days at 37° C., 5% CO2, Sytox Green and Saponin added to final concentration of 2 μM and 0.25% respectively and incubated for 6 h prior to analysis. […] IC50 values were calculated by curve fitting to max inhibition of day zero growth using GeneData software analysis."}, "GLS1": {"target": "GLS1 (Homo sapiens (Human), UniProt O94925)", "sequence (O94925 63-669)": "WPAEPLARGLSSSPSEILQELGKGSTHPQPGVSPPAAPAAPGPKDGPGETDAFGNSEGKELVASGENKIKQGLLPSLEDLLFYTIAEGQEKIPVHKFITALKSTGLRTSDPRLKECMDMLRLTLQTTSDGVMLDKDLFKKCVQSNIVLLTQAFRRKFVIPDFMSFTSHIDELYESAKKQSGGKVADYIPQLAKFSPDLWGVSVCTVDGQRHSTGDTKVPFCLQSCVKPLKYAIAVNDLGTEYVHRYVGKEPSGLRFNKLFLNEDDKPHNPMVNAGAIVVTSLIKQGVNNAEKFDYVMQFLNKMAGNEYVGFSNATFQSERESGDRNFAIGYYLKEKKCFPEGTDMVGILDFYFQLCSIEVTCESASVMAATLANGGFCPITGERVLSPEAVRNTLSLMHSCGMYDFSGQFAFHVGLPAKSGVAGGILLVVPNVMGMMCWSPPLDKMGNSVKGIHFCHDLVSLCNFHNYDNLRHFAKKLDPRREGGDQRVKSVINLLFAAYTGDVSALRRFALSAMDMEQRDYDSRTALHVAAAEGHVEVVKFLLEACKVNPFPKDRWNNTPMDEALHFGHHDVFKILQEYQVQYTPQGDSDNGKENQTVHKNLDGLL", "test": "GLS Enzyme Potency Assay (Glutamate Oxidase/AmplexRed coupled assay)", "assay_type": "biochemical", "conditions": "6His tagged GLS protein (amino acids 63-669), 60 minutes reaction with glutamine", "excerpt": "The following assays were used to measure the effects of the compounds of the present invention: a) GLS Enzyme Potency Assay; b) GLS Cell Potency Assay; c) GLS Cell Proliferation Assay. During the description of the assays, generally: • i. The following abbreviations have been used: CO2=Carbon dioxide; DMEM=Dulbecco's Modified Eagle Medium; DMSO=Dimethyl sulphoxide; EDTA=Ethylenediaminetetraacetic acid; EGTA=Ethylene glycol tetraacetic acid; FCS=Foetal calf serum; h=Hour(s); NBS=Non-binding surface; SDS=Sodium dodecyl sulphate; TRIS=Tris(Hydroxymethyl)aminomethane. • ii. IC50 values were calculated using a smart fitting model in Genedata. The IC50 value was the concentration of test compound that inhibited 50% of biological activity. Assay a): GLS Enzyme Potency Assay\nA Glutamate Oxidase/AmplexRed coupled assay was used to measure the ability of compounds to bind to and inhibit the activity of GLS1 in vitro. 6His tagged GLS protein (amino acids 63-669) expressed in E. Coli was purified and stored at −80° C. in aliquots. GLS1 was diluted to 2×working concentration and incubated at r.t. to allow the tetrameric/dimeric forms to reach steady state. Assay measurements were performed in buffer comprising 50 mM TRIS pH 7.8, 100 mM NaPO4, pH 7.8, 0.001% v/v Tween20. Purified recombinant GLS1 protein was diluted in assay buffer to 12 nM and pre-incubated at r.t. for 30 minutes. Test compounds were prepared by dilution in 100% DMSO to give the correct dose range for 12 point concentration response and an appropriate volume (2.5-60 nl) dispensed into 384 well micro assay plates (Greiner product code 784900) using a Labcyte Echo 555 acoustic dispenser. DMSO concentration was maintained at 2% by back filling with DMSO solution. 3 μL of diluted GLS1 protein (12 nM) was then dispensed into each well using a BioRaptr automated dispenser (Beckman-Coulter) and incubated for 15 minutes at r.t. 3 μl of 100 mM glutamine diluted in assay buffer was then added and the reaction incubated at r.t. for 60 minutes. The reaction was then stopped by addition of 45 μM 6-(2-bromoethynyl)-2,3-dimethyl-quinazolin-4-one, 75 μM Amplex Red, 0.375 units/mL Horseradish Peroxidase, 0.12 units/mL Glutamate Oxidase in 100 mM TRIS pH7.5. After 30 minutes at room temp in the dark, plates were read on a Perkin Elmer EnVision using 535/590 nm optic filters and raw data analysed using Genedata to generate IC50 values. An artefact version of the assay where the 6His tagged GLS protein and glutamine were replaced with assay buffer was also used to rule out non specific effects on the assay components."}, "[1]": {"system": "cellular GLS activity in PC3 cells", "test": "GLS Cell Potency Assay (PC3 coupled assay measuring cellular glutamate depletion)", "assay_type": "cell-based", "conditions": "Homo sapiens, PC-3; PC3 cells, 6 h incubation, cellular glutamate depletion; read-out: Assay b) GLS Cell Potency Assay IC50", "excerpt": "as §1\nCompounds were assessed for their potential to inhibit cellular GLS activity by use of a PC3 coupled assay measuring cellular glutamate depletion. […] DMSO concentration was maintained at 0.3% by back filling with DMSO solution. PC3 cells were grown in phenol free DMEM, 10% dialyzed FCS, 2 mM glutamine and following dispersal by trypsinisation were plated at 5.6×10^3 cells per well in 40 μl of growth medium directly into the 384 well assay plates containing dispensed compound. After incubation for 6 h at 37° C., 5% CO2 growth media was aspirated and cells lysed in 15 μl of buffer containing 10 mM TRIS pH7.4, 100 mM NaCl, 1 mM EDTA, 1 mM EGTA, 1 mM NaF, 20 mM Na4P2O7, 2 mM Na3VO4, 1% Triton X-100, 10% glycerol, 0.1% SDS and 0.5% deoxycholate."}}}
{"smiles": "CO[C@H](C(=O)Nc1ccc(N2CC[C@@H](Nc3cccnn3)C2)nn1)c1cccc(OC(F)F)c1", "note": "[Example 1, (2S)-2-[3-(Difluoromethoxy)phenyl]-2-methoxy-N-[6-[(3R)-3-(pyridazin-3-ylamino)pyrrolidin-1-yl]pyridazin-3-yl]acetamide]", "values": [{"measurement": "IC50", "setting": "NCI-H1703 cells", "value": 9, "unit": "nM"}, {"measurement": "IC50", "setting": "GLS1", "value": 24.7, "unit": "nM"}, {"measurement": "IC50", "setting": "[1]", "value": 1, "unit": "nM"}]}
{"smiles": "CO[C@H](C(=O)Nc1ccc(N2CC[C@@H](Nc3cccnn3)C2)nn1)c1cccc(OC(F)(F)F)c1", "note": "[Example 2, (2S)-2-[3-(Trifluoromethoxy)phenyl]-2-methoxy-N-[6-[(3R)-3-(pyridazin-3-ylamino)pyrrolidin-1-yl]pyridazin-3-yl]acetamide]", "values": [{"measurement": "IC50", "setting": "NCI-H1703 cells", "value": 11, "unit": "nM"}, {"measurement": "IC50", "setting": "GLS1", "value": 95.7, "unit": "nM"}, {"measurement": "IC50", "setting": "[1]", "value": 1, "unit": "nM"}]}
{"smiles": "COc1cccc([C@H](OC)C(=O)Nc2ccc(N3CC[C@@H](Nc4cccnn4)C3)nn2)c1", "note": "[Example 3, (2S)-2-Methoxy-2-(3-methoxyphenyl)-N-[6-[(3R)-3-(pyridazin-3-ylamino)pyrrolidin-1-yl]pyridazin-3-yl]acetamide]", "values": [{"measurement": "IC50", "setting": "NCI-H1703 cells", "value": 3, "unit": "nM"}, {"measurement": "IC50", "setting": "GLS1", "value": 29.8, "unit": "nM"}, {"measurement": "IC50", "setting": "[1]", "value": 1, "unit": "nM"}]}
{"smiles": "COc1ccccc1CC(=O)Nc1ccc(N2CC[C@@H](Nc3cccnn3)C2)nn1", "note": "[Example 4, 2-(2-Methoxyphenyl)-N-[6-[(3R)-3-(pyridazin-3-ylamino)pyrrolidin-1-yl]pyridazin-3-yl]acetamide]", "values": [{"measurement": "IC50", "setting": "NCI-H1703 cells", "value": 43, "unit": "nM"}, {"measurement": "IC50", "setting": "GLS1", "value": 30.9, "unit": "nM"}, {"measurement": "IC50", "setting": "[1]", "value": 7, "unit": "nM"}]}
{"smiles": "O=C(Cc1ccccc1C(F)(F)F)Nc1ccc(N2CC[C@@H](Nc3cccnn3)C2)nn1", "note": "[Example 5, N-[6-[(3R)-3-(Pyridazin-3-ylamino)pyrrolidin-1-yl]pyridazin-3-yl]-2-[2-(trifluoromethyl)phenyl]acetamide]", "values": [{"measurement": "IC50", "setting": "NCI-H1703 cells", "value": 3, "unit": "nM"}, {"measurement": "IC50", "setting": "GLS1", "value": 30.6, "unit": "nM"}, {"measurement": "IC50", "setting": "[1]", "value": 1, "unit": "nM"}]}
{"smiles": "O=C(Cc1ccccc1OC(F)(F)F)Nc1ccc(N2CC[C@@H](Nc3cccnn3)C2)nn1", "note": "[Example 6, N-[6-[(3R)-3-(Pyridazin-3-ylamino)pyrrolidin-1-yl]pyridazin-3-yl]-2-[2-(trifluoromethoxy)phenyl]acetamide]", "values": [{"measurement": "IC50", "setting": "NCI-H1703 cells", "value": 12, "unit": "nM"}, {"measurement": "IC50", "setting": "GLS1", "value": 25.2, "unit": "nM"}, {"measurement": "IC50", "setting": "[1]", "value": 1, "unit": "nM"}]}
